Source: patent publication US11136351B2 (priority 2016, dated 2021)
Residues, ends and D or L forms follow the SMILES beside them.

Details: pH 1.2

N=C(N)NCCC[C@@H]1NC(=O)[C@@H]2CCCN2C(=O)[C@H](CC(=O)O)NC(=O)[C@H](CO)NC(=O)[C@H](CO)NC(=O)[C@@H](NC(=O)CN)CSSC[C@@H](C(N)=O)NC1=O [[Ser^3]Vc1.1(1-8)] (HELM PEPTIDE1{G.C.S.S.D.P.R.C.[am]}$PEPTIDE1,PEPTIDE1,2:R3-8:R3$$$V2.0)
stability in simulated gastric fluid: good stability
